Measured values from patent US12202818B2, “Compounds and methods for CD73 modulation and indications therefor” (Opna Bio SA, priority 2020, dated 2025).

Tests used:
[1] = biological target: T1, human CD73 (Homo sapiens, UniProt P21589); experiment: Inhibitor activity against CD73 in cell based assay (CD73 expressing CHO-K1 cells); conditions: CHO-K1 cells expressing human CD73, 150 μM AMP, 4 hours of incubation; read-out: CHO-K1 CELL_VARIANT: CD73 IC50
T1 construct: expressed in transfected cells
T1 sequence (P21589 27-549): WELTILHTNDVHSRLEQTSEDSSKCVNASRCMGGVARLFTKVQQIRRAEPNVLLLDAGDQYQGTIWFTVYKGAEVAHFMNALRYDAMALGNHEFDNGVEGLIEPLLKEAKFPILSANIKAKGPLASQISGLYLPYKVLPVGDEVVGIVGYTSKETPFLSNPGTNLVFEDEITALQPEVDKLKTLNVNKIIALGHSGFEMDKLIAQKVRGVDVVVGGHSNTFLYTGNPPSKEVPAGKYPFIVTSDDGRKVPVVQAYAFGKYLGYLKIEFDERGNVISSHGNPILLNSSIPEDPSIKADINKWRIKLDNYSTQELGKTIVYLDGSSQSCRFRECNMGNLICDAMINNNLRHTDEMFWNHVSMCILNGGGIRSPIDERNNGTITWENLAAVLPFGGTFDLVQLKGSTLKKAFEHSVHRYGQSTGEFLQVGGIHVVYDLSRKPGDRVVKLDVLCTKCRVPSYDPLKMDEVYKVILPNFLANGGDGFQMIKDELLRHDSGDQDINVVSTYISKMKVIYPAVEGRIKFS
How it was run: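 AMP (150 μM) was added alongside 8 titrated compound doses (maximum 10 μM, 1:3 steps) to CHO-K1 cells stably expressing human CD73. After 4 h, supernatant AMP was measured indirectly with CellTiter-Glo 2.0 plus 1 μM ATP (30 min, RT). % inhibition versus high and low controls was fitted nonlinearly for IC50.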

[2] = biological target: T2, Human CD73 (amino acid residues 27-549) (Homo sapiens, UniProt P21589); experiment: CD73 enzymatic assay (luciferase-based indirect assay, CellTiter-Glo); type: biochemical; conditions: 0.4 nM CD73, 150 μM AMP, 1 hour at room temperature
T2 construct: Human CD73 (amino acid residues 27-549); His tag (N); made in house; host or cells: E. coli
T2 sequence (P21589 27-549): T1 sequence (P21589 27-549)
How it was run: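 Luciferase-coupled readout: AMP left after CD73 turnover suppresses CellTiter-Glo signal (1 μM ATP final, 30 min RT). Reaction beforehand: 150 μM AMP, 0.4 nM E. coli-made His-tagged CD73 residues 27-549, test compound, HEPES pH 7.4 with Tween-20, 1 h RT. % inhibition fitted nonlinearly for IC50.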

| SMILES | IC50 [1] | IC50 [2] |
| --- | --- | --- |
| Cc1nn(CC2(C)COC2)c(C)c1-c1cc(F)nc(O[C@@H]2CCN(c3cn[nH]c(=O)c3Cl)C2)c1 [P-0184, (R)-4-chloro-5-(3-((4-(3,5-dimethyl-1-((3-methyloxetan-3-yl)methyl)-1H-pyrazol-4-yl)-6-fluoropyridin-2-yl)oxy)pyrrolidin-1-yl)pyridazin-3(2H)-one] | 0.001 to 10 µM | 0.001 to 10 µM |
| Cc1nn(C2(CC(N)=O)CCC2)c(C)c1-c1ccnc(O[C@@H]2CCN(c3cn[nH]c(=O)c3Cl)C2)c1 [P-0035, (R)-2-(1-(4-(2-((1-(5-chloro-6-oxo-1,6-dihydropyridazin-4-yl)pyrrolidin-3-yl)oxy)pyridin-4-yl)-3,5-dimethyl-1H-pyrazol-1-yl)cyclobutyl)acetamide] | 0.001 to 10 µM | 0.001 to 10 µM |
| Cc1noc(C)c1-c1cc(F)nc(O[C@H]2CN(c3cn[nH]c(=O)c3Cl)C[C@@H]2F)c1 [P-0189, 4-chloro-5-((3S,4S)-3-((4-(3,5-dimethylisoxazol-4-yl)-6-fluoropyridin-2-yl)oxy)-4-fluoropyrrolidin-1-yl)pyridazin-3(2H)-one] | 0.001 to 10 µM | 0.001 to 10 µM |
| CN1C2CCC1CN(c1ccnc(O[C@@H]3CCN(c4cn[nH]c(=O)c4Cl)C3)c1)C2 [P-0004, 4-chloro-5-((3R)-3-((4-(8-methyl-3,8-diazabicyclo[3.2.1]octan-3-yl)pyridin-2-yl)oxy)pyrrolidin-1-yl)pyridazin-3(2H)-one] | 0.001 to 10 µM | 0.001 to 10 µM |
| O=c1[nH]ncc(N2CC[C@@H](Oc3cc(-c4ccc(S(=O)(=O)Nc5ccc(F)cc5)cc4)ccn3)C2)c1Cl [P-0241, (R)-4-(2-((1-(5-chloro-6-oxo-1,6-dihydropyridazin-4-yl)pyrrolidin-3-yl)oxy)pyridin-4-yl)-N-(4-fluorophenyl)benzenesulfon-amide] | 0.001 to 10 µM | 0.001 to 10 µM |
| O=c1[nH]ncc(N2CC[C@@H](Oc3ncccc3NC3CCC(F)(F)CC3)C2)c1Cl [P-0110, (R)-4-chloro-5-(3-((3-((4,4-difluorocyclohexyl)amino)pyridin-2-yl)oxy)pyrrolidin-1-yl)pyridazin-3(2H)-one] | 0.001 to 10 µM | 0.001 to 10 µM |
| Cc1nn(C)c(C)c1-c1ccnc(O[C@@H]2CCN(c3cn[nH]c(=O)c3C#N)C2)c1 [P-0114, (R)-3-oxo-5-(3-((4-(1,3,5-trimethyl-1H-pyrazol-4-yl)pyridin-2-yl)oxy)pyrrolidin-1-yl)-2,3-dihydropyridazine-4-carbonitrile] | 0.001 to 10 µM | 0.001 to 10 µM |
| O=c1[nH]ncc(N2CC[C@@H](Oc3cc(N4CCC(CO)(CCl)CC4)ccn3)C2)c1Cl [P-0083, (R)-4-chloro-5-(3-((4-(4-(chloromethyl)-4-(hydroxymethyl)piperidin-1-yl)pyridin-2-yl)oxy)pyrrolidin-1-yl)pyridazin-3(2H)-one] | 0.001 to 10 µM | 0.001 to 10 µM |
| O=c1[nH]ncc(N2CC[C@@H](Oc3cc(C4CC5CCC(C4)N5)ccn3)C2)c1Cl (stereo partly drawn) [P-0012, 5-((3R)-3-((4-(8-azabicyclo[3.2.1]octan-3-yl)pyridin-2-yl)oxy)pyrrolidin-1-yl)-4-chloropyridazin-3(2H)-one] | 0.001 to 10 µM | 0.001 to 10 µM |
| Cc1nn(CC2COC2)c(C)c1-c1ccnc(O[C@@H]2CCN(c3cn[nH]c(=O)c3Cl)C2)c1 [P-0087, (R)-4-chloro-5-(3-((4-(3,5-dimethyl-1-(oxetan-3-ylmethyl)-1H-pyrazol-4-yl)pyridin-2-yl)oxy)pyrrolidin-1-yl)pyridazin-3(2H)-one] | 0.001 to 10 µM | 0.001 to 10 µM |
| Cc1noc(C)c1-c1ccnc(O[C@H]2CN(c3cnn(CCO)c(=O)c3Cl)C[C@@H]2F)c1 [P-0177, 4-chloro-5-((3S,4S)-3-((4-(3,5-dimethylisoxazol-4-yl)pyridin-2-yl)oxy)-4-fluoropyrrolidin-1-yl)-2-(2-hydroxyethyl)pyridazin-3(2H)-one] | 0.001 to 10 µM | 0.001 to 10 µM |
| Cc1c(C)n(-c2cc(F)nc(O[C@@H]3CCN(c4cn[nH]c(=O)c4Cl)C3)c2)c2ccccc12 [P-0153, (R)-4-chloro-5-(3-((4-(2,3-dimethyl-1H-indol-1-yl)-6-fluoropyridin-2-yl)oxy)pyrrolidin-1-yl)pyridazin-3(2H)-one] | 0.001 to 10 µM | 0.001 to 10 µM |
| O=c1[nH]ncc(N2CC[C@@H](Oc3cc(C4CCCC4)ccn3)C2)c1Cl [P-0073, (R)-4-chloro-5-(3-((4-cyclopentylpyridin-2-yl)oxy)pyrrolidin-1-yl)pyridazin-3(2H)-one] | 0.001 to 10 µM | 0.001 to 10 µM |
| CS(=O)(=O)N1CC=C(c2ccnc(O[C@@H]3CCN(c4cn[nH]c(=O)c4Cl)C3)c2)CC1 [P-0029, (R)-4-chloro-5-(3-((1′-(methylsulfonyl)-1′,2′,3′,6′-tetrahydro-[4,4′-bipyridin]-2-yl)oxy)pyrrolidin-1-yl)pyridazin-3(2H)-one] | 10 to 100 µM | 0.001 to 10 µM |
| N#CC1CC=C(c2ccnc(O[C@@H]3CCN(c4cn[nH]c(=O)c4Cl)C3)c2)CC1 (stereo partly drawn) [P-0100, 4-(2-(((R)-1-(5-chloro-6-oxo-1,6-dihydropyridazin-4-yl)pyrrolidin-3-yl)oxy)pyridin-4-yl)cyclohex-3-ene-1-carbonitrile] | 0.001 to 10 µM | 0.001 to 10 µM |
| CC(=O)C1CCC(c2ccnc(O[C@@H]3CCN(c4cn[nH]c(=O)c4Cl)C3)c2)CC1 (stereo partly drawn) [P-0060, (R)-5-(3-((4-(4-acetylcyclohexyl)pyridin-2-yl)oxy)pyrrolidin-1-yl)-4-chloropyridazin-3(2H)-one] | 0.001 to 10 µM | 0.001 to 10 µM |
| CCCNS(=O)(=O)c1ccc(-c2ccnc(O[C@@H]3CCN(c4cn[nH]c(=O)c4Cl)C3)c2)cc1 [P-0223, (R)-4-(2-((1-(5-chloro-6-oxo-1,6-dihydropyridazin-4-yl)pyrrolidin-3-yl)oxy)pyridin-4-yl)-N-propylbenzenesulfonamide] | 0.001 to 10 µM | 0.001 to 10 µM |
| Cc1nn(C)c(C)c1-c1cc(O[C@@H]2CCN(c3cn[nH]c(=O)c3Cl)C2)nc(N)n1 [P-0089, (R)-5-(3-((2-amino-6-(1,3,5-trimethyl-1H-pyrazol-4-yl)pyrimidin-4-yl)oxy)pyrrolidin-1-yl)-4-chloropyridazin-3(2H)-one] | 0.001 to 10 µM | 0.001 to 10 µM |
| Cc1nn(C)c(C)c1-c1cncc(O[C@@H]2CCN(c3cn[nH]c(=O)c3Cl)C2)c1 [P-0168, (R)-4-chloro-5-(3-((5-(1,3,5-trimethyl-1H-pyrazol-4-yl)pyridin-3-yl)oxy)pyrrolidin-1-yl)pyridazin-3(2H)-one] | 0.001 to 10 µM | 0.001 to 10 µM |
| O=c1[nH]ncc(N2CC[C@@H](Oc3cc(N4CCC(NS(=O)(=O)C5CC5)CC4)ccn3)C2)c1Cl [P-0221, (R)-N-(1-(2-((1-(5-chloro-6-oxo-1,6-dihydropyridazin-4-yl)pyrrolidin-3-yl)oxy)pyridin-4-yl)piperidin-4-yl)cyclopropanesulfonamide] | 0.001 to 10 µM | 0.001 to 10 µM |
| O=C(O)C1CC=C(c2ccnc(O[C@@H]3CCN(c4cn[nH]c(=O)c4Cl)C3)c2)CC1 (stereo partly drawn) [P-0050, 4-(2-(((R)-1-(5-chloro-6-oxo-1,6-dihydropyridazin-4-yl)pyrrolidin-3-yl)oxy)pyridin-4-yl)cyclohex-3-ene-1-carboxylic acid] | 0.001 to 10 µM | 0.001 to 10 µM |
| CC(=O)N1CCN(c2ccnc(O[C@@H]3CCN(c4cn[nH]c(=O)c4Cl)C3)c2)[C@H](C)C1 [P-0104, 5-((R)-3-((4-((R)-4-acetyl-2-methylpiperazin-1-yl)pyridin-2-yl)oxy)pyrrolidin-1-yl)-4-chloropyridazin-3(2H)-one] | 10 to 100 µM | 0.001 to 10 µM |
| COC(=O)Cc1ccc(-c2ccnc(O[C@@H]3CCN(c4cn[nH]c(=O)c4Cl)C3)c2)c(F)c1 [P-0218, methyl (R)-2-(4-(2-((1-(5-chloro-6-oxo-1,6-dihydropyridazin-4-yl)pyrrolidin-3-yl)oxy)pyridin-4-yl)-3-fluorophenyl)acetate] | 0.001 to 10 µM | 0.001 to 10 µM |
| Cc1nn(C)c(C)c1-c1cc(F)nc(O[C@H]2CN(c3cn[nH]c(=O)c3Cl)C[C@@H]2F)c1 [P-0191, 4-chloro-5-((3S,4S)-3-fluoro-4-((6-fluoro-4-(1,3,5-trimethyl-1H-pyrazol-4-yl)pyridin-2-yl)oxy)pyrrolidin-1-yl)pyridazin-3(2H)-one] | 0.001 to 10 µM | 0.001 to 10 µM |
| CCn1nc(C)c(-c2ccnc(O[C@@H]3CCN(c4cnn(CCO)c(=O)c4Cl)C3)c2)c1C [P-0062, (R)-4-chloro-5-(3-((4-(1-ethyl-3,5-dimethyl-1H-pyrazol-4-yl)pyridin-2-yl)oxy)pyrrolidin-1-yl)-2-(2-hydroxyethyl)pyridazin-3(2H)-one] | 0.001 to 10 µM | 0.001 to 10 µM |
